Where two headings read alike, the source gives them in different places.
Test system: primary neuronal cultures from embryonic rat brains
Assay: Rat oscillation assay (FLIPR, neuronal calcium oscillations)
Assay type: cell-based
Method: This assay is a functional phenotypic assay designed to mimic epileptic seizures using primary neuronal cultures from embryonic rat brains, which form a functional neuronal network that generate synchronized intracellular calcium concentration oscillations when cultured at high density in 384-well plate. The epileptic phenotype is induced by incubating the neurons in magnesium-free assay buffer, that results in increased probability of NMDA receptor activation, leading to an increased frequency and amplitude of intracellular calcium oscillations. Once neurons are incubated with the calcium indicator dye Fluo-8 AM (Tebu-bio), neuronal calcium oscillations can be monitored in real time using FLIPR® Tetra (fluorometric plate reader, Molecular Devices). With these recordings, the effect of anti-epileptic drugs can be quantified. The anti-epileptic effect of compounds, which activate directly or indirectly the Kv7 channels can be modulated by the Kv7 channel blocker XE-991. The assay was performed as described previously (Pacico N, Mingorance-Le Meur A. New In Vitro Phenotypic Assay for Epilepsy: Fluorescent Measurement of Synchronized Neuronal Calcium Oscillations. PLoS ONE 9(1) 2014) with modifications described hereafter.
Animal care followed standard procedures in accordance with swiss institutional guidelines. Dissociated neuronal cultures were obtained from cerebral cortices of embryonic Wistar rats at embryonic stage E18 (Charles River). The uterine horns were removed by caesarian surgery from deeply anesthetized rats (Isofurane) and sacrificed by decapitation. The embryos were decapitated by closing forceps. The brains were isolated and dissected one by one in ice-cold PBS (Life Technologies) under optical control using a binocular. Meninges, olfactory bulbs, and basal ganglia were removed. Cortical hemispheres (still including the hippocampus) were cut in small pieces with tweezers and placed on ice in prechilled Hibernate-E medium (Life technology). The hemispheres were then incubated in 10 mL of Hibernate-E containing 15 U/mL papain (Worthington) for 25 min at 30° C. with gentle mixing every 10 min. Genomic DNA was then digested by prolonging the incubation during 10 min at 37° C. in presence of 4 U/mL rDNase I (Ambion). The obtained suspension was then centrifuged at 800 g for 5 min and the cell pellet was resuspended in 2 mL Hibernate-E and gently dissociated by pipetting up and down 10 times with a plastic Pasteur pipette resulting in a homogenous cell suspension. This suspension was immediately filtered through a 70 µm cell strainer (MACS® SmartStrainer, Miltenyi), collected in 10 mL Hibernate-E and centrifuged at 800 g for 5 min. The cell pellet was resuspended in Neurobasal medium, supplemented with 2% B-27, 0.5 mM Glutamax-I, 100 U/mL penicillin, 100 µg/mL streptomycin (Life Technologies) and diluted at the final concentration of 300′000 cells/mL. One day before plating the cells, 384-well plates were coated with 25 µL/well of 0.1 % poly-L-lysine solution (Sigma), incubated overnight at 37° C., washed two times with sterile distilled water and allowed to dry at room temperature for >2 h. The neurons were seeded at a density of 15′000 cells/well in 50 µL/well in a 384-well black, clear-bottomed plates (Corning) and subsequently maintained in an incubator at 37° C., 5% CO2 and 95% humidity for 8 to 10 days. After 3 and 7 days, 40% of media was renewed under sterile conditions.
Neurons seeded in the assay plates were washed with Hank’s balanced salt solution (HBSS) devoid of Ca^2+ and Mg^2+, supplemented with 20 mM HEPES (Life Technologies) and 2 mM CaCl2 (Sigma), pH 7.4 (hereafter called Assay buffer) using a Biotek EL406 plate washer. Neurons were loaded with 1 µM Fluo-8 AM in Assay buffer for 15 min at 37° C., 5% CO2. […]

[1] = 20 min after compound addition, AUC of fluorescence, read-out: FLIPR: IC50 [nM] 20 min
[2] = acute phase, ratio of AUC fluorescence before and after compound addition, rat cortical neurons, Mg-free buffer, read-out: FLIPR: IC50 [nM] acute
[3] = Rattus norvegicus, 20 min, 20 min after compound addition, AUC of fluorescence, read-out: FLIPR: IC50 [nM] 20 min
[4] = Rattus norvegicus, Cortical neurone, acute phase, ratio of AUC fluorescence before and after compound addition, rat cortical neurons, Mg-free buffer, read-out: FLIPR: IC50 [nM] acute

Row | SMILES | IC50 [1] [nM] | IC50 [2] [nM] | IC50 [3] [nM] | IC50 [4] [nM]
1 | O=C(NCc1cccc(C(F)(F)F)c1)NC1CC(C(F)F)C1 (single isomer, unassigned) [Example 52, 1-(3-(Difluoromethyl)Cyclobutyl)-3-(3-(Trifluoromethyl)Benzyl)Urea] | 738 | 660 |  | 
2 | O=C(NCc1ccnc(OCC(F)(F)F)c1)NC1CC(C(F)F)C1 (single isomer, unassigned) [Example 56, 1-(3-(Difluoromethyl)Cyclobutyl)-3-((2-(2,2,2-Trifluoroethoxy)Pyridin-4-yl)Methyl)Urea] | 547 | 123 |  | 
3 | CC(NC(=O)NC12CC(C1)C2)c1cccc(C(F)(F)F)c1 (stereo not drawn) [Example 2, 1-Bicyclo[1.1.1]Pent-1-yl-3-[1-(3-Trifluoromethyl-Phenyl)-Ethyl]-Urea] |  |  | 466 | 291
4 | COCC(NC(=O)NC1CC(C(F)(F)F)C1)c1ccnc(OCC(F)(F)F)c1 (racemic) [Example 32, (±)-1-{2-Methoxy-1-[2-(2,2,2-Trifluoro-Ethoxy)-Pyridin-4-yl]-Ethyl}-3-(3-Trifluoromethyl-Cyclobutyl)-Urea] |  |  | 303 | 67
5 | COCC(NC(=O)NC1CC(C(F)F)C1)c1ccnc(OCC(F)(F)F)c1 (racemic) [Example 31, (±)-1-(3-Difluoromethyl-Cyclobutyl)-3-{2-Methoxy-1-[2-(2,2,2-Trifluoro-Ethoxy)-Pyridin-4-yl]-Ethyl}-Urea] |  |  | 763 | 190
6 | O=C(NCc1ccnc(OCC(F)(F)F)c1)NC1CC(C(F)F)C1 (stereo not drawn) [Example 46, 1-(3-Difluoromethyl-cyclobutyl)-3-[2-(2,2,2-trifluoro-ethoxy)-pyridin-4-ylmethyl]-urea] |  |  | 257 | 148
7 | O=C(NCc1cccc(OCC(F)(F)F)c1)NC12CC(F)(C1)C2 [Example 17, 1-(3-Fluoro-Bicyclo[1.1.1]Pent-1-yl)-3-[3-(2,2,2-Trifluoro-Ethoxy)-Benzyl]-Urea] |  |  | 239 | 202
8 | O=C(NCc1cccc(C(F)(F)F)c1)NC1CC(C(F)(F)F)C1 (single isomer, unassigned) [Example 50, 1-(3-(Trifluoromethyl)Benzyl)-3-(3-(Trifluoromethyl)Cyclobutyl)Urea] | 82 | 68 |  | 
9 | O=C(NCc1cccc(C(F)(F)F)c1)NC12CC(C1)C2 [Example 35, 1-Bicyclo[1.1.1]Pent-1-yl-3-(3-Trifluoromethyl-Benzyl)-Urea] |  |  | 717 | 231
10 | O=C(NCc1cccc(OC(F)F)c1)NC12CC(C(F)(F)F)(C1)C2 [Example 22, 1-(3-Difluoromethoxy-benzyl)-3-(3-trifluoromethyl-bicyclo[1.1.1]pent-1-yl)-urea] |  |  | 311 | 134
11 | O=C(NCc1ccnc(OCC(F)(F)F)c1)NC12CC(F)(C1)C2 [Example 44, 1-(3-Fluoro-bicyclo[1.1.1]pent-1-yl)-3-[2-(2,2,2-trifluoro-ethoxy)-pyridin-4-ylmethyl]-urea] |  |  | 1350 | 591
12 | O=C(NCc1cccc(C(F)(F)F)c1)NC1CC(F)(F)C1 [Example 1, 1-(3,3-Difluoro-Cyclobutyl)-3-(3-Trifluoromethyl-Benzyl)-Urea] |  |  | 855 | 486
13 | O=C(NCc1cccc(OC(F)(F)F)c1)NC1CC(C(F)F)C1 (stereo not drawn) [Example 25, 1-(3-Difluoromethyl-cyclobutyl)-3-(3-trifluoromethoxy-benzyl)-urea] |  |  | 610 | 235
14 | Cc1nc(OCC(F)(F)F)cc([C@H](C)NC(=O)NC23CC(C(F)(F)F)(C2)C3)n1 (single isomer, unassigned) [Example 54] |  |  | 216 | 218
15 | COCC(NC(=O)NC12CC(C(F)F)(C1)C2)c1cccc(C(F)(F)F)c1 (stereo not drawn) [Example 14, 1-(3-Difluoromethyl-bicyclo[1.1.1]pent-1-yl)-3-[2-methoxy-1-(3-trifluoromethyl-phenyl)-ethyl]-urea] |  |  | 79 | 37
16 | CC(NC(=O)NC12CC(C1)C2)c1cccc(OC(F)F)c1 (stereo not drawn) [Example 11, 1-Bicyclo[1.1.1]Pent-1-yl-3-[1-(3-Difluoromethoxy-Phenyl)-Ethyl]-Urea] |  |  | 1360 | 741
17 | O=C(NCc1cccc(C(F)(F)F)c1F)NC12CC(C(F)F)(C1)C2 [Example 15, 1-(3-Difluoromethyl-bicyclo[1.1.1]pent-1-yl)-3-(2-fluoro-3-trifluoromethyl-benzyl)-urea] |  |  | 960 | 619
18 | O=C(NCc1cccc(C(F)(F)F)c1)NC12CC(CF)(C1)C2 [Example 40, 1-(3-Fluoromethyl-bicyclo[1.1.1]pent-1-yl)-3-(3-trifluoromethyl-benzyl)-urea] |  |  | 248 | 149
19 | CC(NC(=O)NC1CC(C(F)F)C1)c1ccnc(OC(F)F)c1 (racemic) [Example 33, (±)-1-[1-(2-Difluoromethoxy-Pyridin-4-yl)-Ethyl]-3-(3-Difluoromethyl-Cyclobutyl)-Urea] |  |  | 1510 | 946
20 | CC(NC(=O)NC12CC(F)(C1)C2)c1cccc(OC(F)(F)F)c1 (stereo not drawn) [Example 8, 1-(3-Fluoro-bicyclo[1.1.1]pent-1-yl)-3-[1-(3-trifluoromethoxyphenyl)-ethyl]-urea] |  |  | 331 | 168
21 | O=C(NCc1cccc(C(F)F)c1)NC1CC(C(F)F)C1 (stereo not drawn) [Example 27, 1-(3-Difluoromethyl-Benzyl)-3-(3-Difluoromethyl-Cyclobutyl)-Urea] |  |  | 1730 | 1340
22 | O=C(NCc1cccc(C(F)(F)F)c1)NC12CCC(C1)C2 [Example 48, 1-Bicyclo[2.1.1]Hex-1-yl-3-(3-Trifluoromethyl-Benzyl)-Urea] |  |  | 484 | 232
23 | CC(NC(=O)NC12CC(F)(C1)C2)c1cccc(C(F)(F)F)c1 (stereo not drawn) [Example 4, 1-(3-Fluoro-bicyclo[1.1.1]pent-1-yl)-3-[1-(3-trifluoromethylphenyl)-ethyl]-urea] |  |  | 1060 | 138
24 | O=C(NCc1cccc(OCC(F)(F)F)c1)NC1CC(C(F)F)C1 (stereo not drawn) [Example 18, 1-(3-Difluoromethyl-cyclobutyl)-3-[3-(2,2,2-trifluoro-ethoxy)-benzyl]-urea] |  |  | 1080 | 377
25 | O=C(NCc1cccc(C(F)(F)F)c1)NC1CC(C(F)F)C1 (stereo not drawn) [Example 38, 1-(3-Difluoromethyl-cyclobutyl)-3-(3-trifluoromethyl-benzyl)-urea] |  |  | 390 | 135
26 | O=C(NC(CO)c1cccc(C(F)(F)F)c1)NC12CC(C(F)F)(C1)C2 (stereo not drawn) [Example 12, 1-(3-Difluoromethyl-Bicyclo[1.1.1]Pent-1-yl)-3-[2-Hydroxy-1-(3-Trifluoromethyl-Phenyl)-Ethyl]-Urea] |  |  | 164 | 154
27 | C[C@H](NC(=O)NC1CC(C(F)F)C1)c1cccc(OC(F)(F)F)c1 (single isomer, unassigned) [Example 57] | 314 | 146 |  | 
28 | O=C(NCc1cccc(C(F)(F)F)c1)NC12CC(F)(C1)C2 [Example 36, 1-(3-Fluoro-bicyclo[1.1.1]pent-1-yl)-3-(3-trifluoromethyl-benzyl)-urea] |  |  | 344 | 245
29 | O=C(NCc1cccc(C(F)(F)F)c1)NC1CC(C(F)(F)F)C1 (single isomer, unassigned) [Example 51, 1-(3-(Trifluoromethyl)Benzyl)-3-(3-(Trifluoromethyl)Cyclobutyl)Urea] | 515 | 363 |  | 
30 | O=C(NCc1cccc(OC(F)(F)F)c1)NC12CC(C1)C2 [Example 26, 1-Bicyclo[1.1.1]pent-1-yl-3-(3-trifluoromethoxy-benzyl)-urea] |  |  | 315 | 295

Reference: patent publication US20230303486A1, “CYCLOBUTYL-UREA DERIVATIVES” (Idorsia Pharmaceuticals Ltd, priority 2020, published 2023)
